Settings in all cases: incubation time: 72 h
Experiment [1] has as its system DU-4475. Put plainly: normalised response (% of control), CellTiter-Glo; higher = more viable cells (100 = DMSO, 0 = benzethonium chloride kill control). Summed up: (§1)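 Breast cancer cell lines in 20 µl suspension were added to 384-well plates containing compound at 5 concentrations, spaced in 10-fold steps across a 10,000-fold range chosen for each compound, and incubated for 72 h. CellTox Green fluorescence was read at 485/520 nm, followed by CellTiter-Glo luminescence after 10 min at room temperature. Signals on each plate were normalised so that 0.1 % DMSO equals 100 and a positive kill control equals 0. Every value in the table is the normalised signal at one concentration of the series.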

The test system of experiment [2] is MDA-MB-453. The experiment is described as above. In a few lines:
as §1

The test system of experiment [3] is CAL-51. The description is as above. Summed up:
as §1

Another experiment concerns MFM-223. The description is as above. Summed up: as §1
The test system of another experiment is BT-474. The experiment is described as above. Summed up:
as §1

Another experiment relates to SK-BR-3. The description is as above. Summed up: as §1
The next experiment has as its system BT-549. The experiment is described as above. In a few lines:
as §1

A further experiment deals with HCC1937. The experiment is described as above. Summed up:
as §1

Experiment [4] concerns HDQ-P1. The experiment is described as above. Summed up: as §1
For a further experiment, the system named is Hs578T. The description is as above. Summed up: as §1
Experiment [5] deals with DU-4475. The experiment is described as above. Summed up: as §1
This is another data set of the same source.

Another experiment has as its system HCC1599. Described as above. Summed up: as §1
The test system of another experiment is MDA-MB-468. Described as above. In a few lines:
as §1

Experiment [6] relates to MDA-MB-453. The experiment is described as follows: normalised viability (% of control), CellTiter-Blue; higher = more viable cells (about 100 = DMSO control). How it is done: (§2)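 DSRT, CellTiter-Blue viability, 72 h incubation. Signal is normalised to DMSO and benzethonium chloride controls. Value is the normalised response at dose 9.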
(In general: The colour change of resazurin is a common sign of viable cells or microbes.)

Experiment [7] deals with CAL-51. The experiment is described as above. How it is done: as §2
The test system of the next experiment is CAL-85-1. The description is as above. How it is done: as §2
Experiment [8] deals with HDQ-P1. The experiment is described as above. How it is done: as §2
Experiment [9] relates to DU-4475. Described as above. How it is done: as §2
For the next experiment, the system named is CAL-148. The experiment is described as above. How it is done: as §2

Each structure is given as a SMILES string.

With `Nc1nc(Cl)nc2c1ncn2[C@@H]1O[C@H](CO)[C@@H](O)[C@@H]1F` [Clofarabine] (1000 nM), the normalised response in the experiment on DU-4475 [1] amounted to 70.9%.

Turning to `Nc1nc(Cl)nc2c1ncn2[C@@H]1O[C@H](CO)[C@@H](O)[C@@H]1F` [Clofarabine] (10000 nM), the normalised response in the experiment on MDA-MB-453 [2] is 75.3%; with CAL-51 [3], 17%; in the experiment with MFM-223, 92.3%; in the experiment with BT-474, 66.3%; in the experiment with SK-BR-3, 36.8%; with BT-549 it was 27.4%. For the same molecule, the normalised response with HCC1937 stood at 84.2%; in the experiment on HDQ-P1 [4], 73.7%; in the experiment on Hs578T, 68.2%; with DU-4475 [5], 49.3%; in the experiment with HCC1599 it was 29.1%; in the experiment on MDA-MB-468, 16.4%. Moreover, the normalised viability in the experiment on MDA-MB-453 [6] came out at 41.2%; with CAL-51 [7], 12.4%; in the experiment with CAL-85-1, 51.2%; in the experiment with HDQ-P1 [8], 91.7%; in the experiment on DU-4475 [9], 14%; in the experiment with CAL-148, 35.5%.

Consider `CCN(CC)CCOc1ccc(C(=C(Cl)c2ccccc2)c2ccccc2)cc1` [Clomifene] (1000 nM), for which the normalised response in the experiment on DU-4475 [1] turned out to be 97.4%.

Consider `CCN(CC)CCOc1ccc(C(=C(Cl)c2ccccc2)c2ccccc2)cc1` [Clomifene] (10000 nM), for which the normalised response came out at 14.7% with MDA-MB-453 [2]; 98.5% with CAL-51 [3]; 26.5% in the experiment with MFM-223; 8.15% in the experiment with BT-474; 27.5% in the experiment with SK-BR-3; 71.3% in the experiment on BT-549. Moreover, the normalised response in the experiment with HCC1937 worked out at 10.1%; in the experiment on HDQ-P1 [4], 82.1%; in the experiment on Hs578T it was 26.6%; with DU-4475 [5], 44.1%; in the experiment on HCC1599, 4.3%; with MDA-MB-468, 65%. The normalised viability in the experiment on MDA-MB-453 [6] worked out at 7.39%; in the experiment on CAL-51 [7], 84.7%; in the experiment on CAL-85-1 it was 42.8%; in the experiment with HDQ-P1 [8], 38.8%; in the experiment with DU-4475 [9], 48.2%; in the experiment with CAL-148, 93.4%.

In the case of `C[C@@H]1C[C@H]2[C@@H]3CCC4=CC(=O)C=C[C@]4(C)[C@@]3(F)[C@@H](O)C[C@]2(C)[C@@]1(O)C(=O)CO` [Dexamethasone] (1000 nM), the normalised response in the experiment with DU-4475 [1] amounted to 96.2%.

For the molecule `CC(C)C(=O)Nc1ccc([N+](=O)[O-])c(C(F)(F)F)c1` [Flutamide] (1000 nM), the normalised response in the experiment on DU-4475 [1] came out at 95.9%.

Consider `COc1cc2c(Oc3ccc(NC(=O)C4(C(=O)Nc5ccc(F)cc5)CC4)cc3F)ccnc2cc1OCCCN1CCOCC1` [Foretinib] (100 nM), for which the normalised response in the experiment with DU-4475 [1] turned out to be 99.9%.

Molecule `NC(=O)NO` [Hydroxyurea] (10000 nM) yielded a normalised response with DU-4475 [1] of 100%.

With `O=NN(CCCl)C(=O)NC1CCCCC1` [Lomustine] (1000 nM), the normalised response with DU-4475 [1] amounted to 99.2%.

As for `O=C(O)CC[C@H]1CC[C@@](c2cc(F)ccc2F)(S(=O)(=O)c2ccc(Cl)cc2)CC1` [MK-0752] (100 nM), the normalised response in the experiment on DU-4475 [1] worked out at 99.2%.

The molecule `NC1(c2ccc(-c3nc4ccn5c(=O)[nH]nc5c4cc3-c3ccccc3)cc2)CCC1` [MK-2206] (100 nM) gave a normalised response in the experiment on DU-4475 [1] of 97.5%.

On to `NC(=O)c1cccc2cn(-c3ccc([C@@H]4CCCNC4)cc3)nc12` [MK-4827] (1000 nM), for which the normalised response with DU-4475 [1] worked out at 86%.

In turn, `O=C(c1cc(Cc2n[nH]c(=O)c3ccccc23)ccc1F)N1CCN(C(=O)C2CC2)CC1` [Olaparib] (1000 nM) yielded a normalised response in the experiment on DU-4475 [1] of 92.5%.

`CO[C@H](C(=O)[C@@H](O)[C@@H](C)O)[C@@H]1Cc2cc3cc(O[C@H]4C[C@@H](O[C@@H]5C[C@@H](O)[C@H](O)[C@@H](C)O5)[C@H](O)[C@@H](C)O4)c(C)c(O)c3c(O)c2C(=O)[C@H]1O[C@H]1C[C@@H](O[C@@H]2C[C@@H](O)[C@@H](O[C@@H]3C[C@](C)(O)[C@H](O)[C@@H](C)O3)[C@@H](C)O2)[C@H](O)[C@@H](C)O1` [Plicamycin] (1000 nM) came in with a normalised response in the experiment with DU-4475 [1] of 99.2%.

`C[C@]12C=CC(=O)C=C1CC[C@@H]1[C@@H]2C(=O)C[C@@]2(C)[C@H]1CC[C@]2(O)C(=O)CO` [Prednisone] (1000 nM) showed a normalised response in the experiment on DU-4475 [1] of 99%.

Take `CO[C@H]1C[C@@H]2CC[C@@H](C)[C@@](O)(O2)C(=O)C(=O)N2CCCC[C@H]2C(=O)O[C@H]([C@H](C)C[C@@H]2CC[C@@H](O)[C@H](OC)C2)CC(=O)[C@H](C)/C=C(\C)[C@@H](O)[C@@H](OC)C(=O)[C@H](C)C[C@H](C)/C=C/C=C/C=C/1C` [Sirolimus] (100 nM): the normalised response in the experiment with MDA-MB-453 [2] is 53.2%; with CAL-51 [3], 61.3%; in the experiment on MFM-223 it was 64.9%; with BT-474, 78.8%; in the experiment with SK-BR-3 it was 57.4%; in the experiment with BT-549, 54.1%. Further, the normalised response in the experiment with HCC1937 was 66.9%; in the experiment on HDQ-P1 [4], 73.4%; in the experiment with Hs578T, 68.8%; in the experiment with DU-4475 [5], 72.8%; with HCC1599, 95.8%; in the experiment on MDA-MB-468, 53.4%.

`CN1CCN(c2nc(C3=C(c4c[nH]c5ccccc45)C(=O)NC3=O)c3ccccc3n2)CC1` [Sotrastaurin] (1000 nM) displayed a normalised response with DU-4475 [1] of 86.4%.

The molecule `COc1cc2c(N3CCN(C(=O)Nc4ccc(OC(C)C)cc4)CC3)ncnc2cc1OCCCN1CCCCC1` [Tandutinib] (100 nM) showed a normalised response in the experiment with DU-4475 [1] of 99.7%.

For `C[C@@H](C(=O)O)c1ccc(-c2ccccc2)c(F)c1` [Tarenflurbil] (1000 nM), the normalised response with DU-4475 [1] came out at 94.6%.

On to `Cn1nnc2c(C(N)=O)ncn2c1=O` [Temozolomide] (1000 nM), for which the normalised response in the experiment on DU-4475 [1] came to 95%.

In the experiment with DU-4475 [1], `CC[C@@H]1C(=O)N(C)c2cnc(Nc3ccc(C(=O)N[C@H]4CC[C@H](N5CCN(CC6CC6)CC5)CC4)cc3OC)nc2N1C(C)C` [Volasertib] (100 nM) displayed a normalised response of 49.1%.

The record behind these values is the supplement of paper PMC4862054.
